Laboratory results: US20180263996A1, “ARYL SULTAM DERIVATIVES AS RORc MODULATORS” (Genentech, Inc., priority 2015, published 2018)

biological target: T1, RORc (Homo sapiens, UniProt P51449); assay: In Vitro RORc Ligand Binding Assay; details: IC50 values for RORc
T1 construct: host or cells: E. coli
T1 sequence (P51449 269-508 limits assumed): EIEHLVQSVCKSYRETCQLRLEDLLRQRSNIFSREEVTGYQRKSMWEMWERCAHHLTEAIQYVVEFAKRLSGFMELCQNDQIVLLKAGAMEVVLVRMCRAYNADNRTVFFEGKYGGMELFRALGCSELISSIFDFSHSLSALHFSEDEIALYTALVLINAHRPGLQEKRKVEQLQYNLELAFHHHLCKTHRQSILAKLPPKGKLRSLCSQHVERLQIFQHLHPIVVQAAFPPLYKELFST

In order of falling IC50:
1. CN/C(=C\C#N)NC(C)c1cc(F)c(CN2[C@@H](C)CC[C@H](c3ccccc3)S2(=O)=O)cc1F (stereo partly drawn) [Compound 45, 3-[1-[2,5-difluoro-4-[[(3S,6R)-3-methyl-1,1-dioxo-6-phenyl-thiazinan-2-yl]methyl]phenyl]ethylamino]-3-(methylamino)prop-2-enenitrile; formic acid]  695 nM
2. C[C@H]1CC[C@H](c2ccccc2)S(=O)(=O)N1Cc1cc(F)c([C@]2(C(N)=O)C[C@@](C)(O)C2)cc1F [Compound 49, 1-[2,5-difluoro-4-[[(3S,6R)-3-methyl-1,1-dioxo-6-phenyl-thiazinan-2-yl]methyl]phenyl]-3-hydroxy-3-methyl-cyclobutanecarboxamide]  199 nM
3. CC(NC(=O)c1cocn1)c1cc(F)c(CN2[C@@H](C)CC[C@H](c3ccccc3)S2(=O)=O)cc1F (stereo in doubt) [Compound 65, N-[1-[2,5-difluoro-4-[[(3S,6R)-3-methyl-1,1-dioxo-6-phenyl-thiazinan-2-yl]methyl]phenyl]ethyl]oxazole-4-carboxamide]  167 nM
4. C[C@H]1CC[C@H](c2ccccc2)S(=O)(=O)N1Cc1ccc(C2(C(=O)NC3CC3)CCOCC2)cc1F [Compound 30, N-cyclopropyl-4-[3-fluoro-4-[[(3S,6R)-3-methyl-1,1-dioxo-6-phenyl-thiazinan-2-yl]methyl]phenyl]tetrahydropyran-4-carboxamide]  129 nM
5. CO[C@H]1C[C@@H](NC(=O)C2(c3ccc(CN4[C@@H](C)CC[C@H](c5ccccc5)S4(=O)=O)c(F)c3)CCOCC2)C1 [Compound 32, 4-[3-fluoro-4-[[(3S,6R)-3-methyl-1,1-dioxo-6-phenyl-thiazinan-2-yl]methyl]phenyl]-N-(3-methoxycyclobutyl)tetrahydropyran-4-carboxamide]  53.5 nM
6. C[C@H]1CC[C@H](c2ccccc2)S(=O)(=O)N1Cc1cc(F)c(C2(NC(=O)C3CC3)COC2)cc1F (stereo in doubt) [Compound 46, N-[3-[2,5-difluoro-4-[[(3S,6R)-3-methyl-1,1-dioxo-6-phenyl-thiazinan-2-yl]methyl]phenyl]oxetan-3-yl]cyclopropanecarboxamide]  33.1 nM
7. CC(NC(=O)c1ccno1)c1cc(F)c(CN2[C@@H](C)CC[C@H](c3ccccc3)S2(=O)=O)cc1F (stereo in doubt) [Compound 55, N-[1-[2,5-difluoro-4-[[(3S,6R)-3-methyl-1,1-dioxo-6-phenyl-thiazinan-2-yl]methyl]phenyl]ethyl]isoxazole-5-carboxamide]  11 nM
8. C[C@H]1CC[C@H](c2ccccc2)S(=O)(=O)N1Cc1cc(F)c(C2(OCC(=O)NC3CC3)CCOCC2)cc1F [Compound 41, N-cyclopropyl-2-[4-[2,5-difluoro-4-[[(3S,6R)-3-methyl-1,1-dioxo-6-phenyl-thiazinan-2-yl]methyl]phenyl]tetrahydropyran-4-yl]oxy-acetamide]  6.8 nM
9. CNC(=O)COC1(c2cc(F)c(CN3[C@@H](C)CC[C@H](c4ccccc4)S3(=O)=O)cc2F)CC2(COC2)C1 [Compound 13, 2-[[6-[2,5-difluoro-4-[[(3S,6R)-3-methyl-1,1-dioxo-6-phenyl-thiazinan-2-yl]methyl]phenyl]-2-oxaspiro[3.3]heptan-6-yl]oxy]-N-methyl-acetamide]  2.1 nM
